According to ChEMBL document CHEMBL6092170, “Activity of the Caged Xanthone Morellic Acid against Vancomycin-Resistant Enterococcus Infection by Targeting the Bacterial Membrane” (2024):
≈ marks a conversion by molar mass, not a printed value. Calls of active or inactive are those of the source. No cut-off for these calls is given here.

Experiments:
[1] = system: Enterococcus faecalis; assay: Antibacterial activity against vancomycin-resistant Enterococcus faecalis ATCC 51299 incubated for 24 hrs by CLSI based microdilution method; format: functional
[2] = system: Staphylococcus aureus; assay: Antibacterial activity against methicillin-resistant Staphylococcus aureus incubated for 24 hrs by CLSI based microdilution method; format: functional
[3] = system: Enterococcus faecalis; assay: Induction of resistance development in vancomycin-resistant Enterococcus faecalis ATCC 51299 at sub-MIC measured after 20 days of continuous passages; format: functional, organism-based; details: time 20.0 day
[4] = system: Enterococcus faecalis; assay: Induction of resistance development in vancomycin-resistant Enterococcus faecalis ATCC 51299 assessed as fold increase in activity at sub-MIC measured after 4 days of continuous passages relative to control; format: functional; details: time 4 day
[5] = system: Enterococcus faecalis; assay: Disruption of membrane integrity in vancomycin-resistant Enterococcus faecalis ATCC 51299 at 2 times MIC incubated for 2 hrs by Hoechst staining based CLSM analysis; format: functional, organism-based
[6] = system: Enterococcus faecalis; assay: Disruption of membrane integrity in vancomycin-resistant Enterococcus faecalis ATCC 51299 at 2 times MIC incubated for 2 hrs by PI staining based CLSM analysis; format: functional, organism-based
[7] = system: Enterococcus faecalis; assay: Disruption of membrane integrity in vancomycin-resistant Enterococcus faecalis ATCC 51299 at 2 times MIC incubated for 2 hrs by SYTOX Green staining based CLSM analysis; format: functional, organism-based
[8] = system: Enterococcus faecalis; assay: Antibacterial activity against vancomycin-resistant Enterococcus faecalis ATCC 51299 assessed as bacterial growth inhibition at 0.5 to 4 times MIC measured after 12 hrs by absorbance based assay; format: functional, organism-based
[9] = system: Enterococcus faecalis; assay: Antibacterial activity against vancomycin-resistant Enterococcus faecalis ATCC 51299 infected in specific pathogen-free Kunming mouse model of abdominal infection assessed as reduction in bacterial load in kidney at 10 mg/kg, ip measured after 72 hrs by plate counting method; format: functional, organism-based
[10] = system: Staphylococcus aureus; assay: Antibacterial activity against Staphylococcus aureus assessed as bacterial growth inhibition at 0.5 to 4 times MIC measured for 4 hrs by absorbance based assay; format: functional, organism-based
[11] = system: Enterococcus faecalis; assay: Antibacterial activity against vancomycin-resistant Enterococcus faecalis ATCC 51299 infected in specific pathogen-free Kunming mouse model of abdominal infection assessed as reduction in bacterial load in spleen at 10 mg/kg, ip measured after 72 hrs by plate counting method; format: functional, organism-based
[12] = system: Enterococcus faecalis; assay: Antibacterial activity against vancomycin-resistant Enterococcus faecalis ATCC 51299 infected in specific pathogen-free Kunming mouse model of abdominal infection assessed as reduction in bacterial load in liver at 10 mg/kg, ip measured after 72 hrs by plate counting method; format: functional, organism-based
[13] = system: Enterococcus faecalis; assay: Antibacterial activity against vancomycin-resistant Enterococcus faecalis ATCC 51299 infected in specific pathogen-free Kunming mouse model of abdominal infection assessed as reduction in bacterial load in abdominal effusion at 10 mg/kg, ip measured after 72 hrs by plate counting method; format: functional, organism-based
[14] = system: Enterococcus faecalis; assay: Disruption of morphology in vancomycin-resistant Enterococcus faecalis ATCC 51299 at 4 times MIC incubated for 18 hrs by SEM analysis; format: functional, organism-based

| Structure (SMILES) | MIC [1] | MIC [2] | other results |
| --- | --- | --- | --- |
| COc1c(O)cc2oc3cc(O)c(CCC(C)(C)O)c(O)c3c(=O)c2c1CC=C(C)C | 16 µg/mL (≈ 37.3 µM) | 16 µg/mL (≈ 37.3 µM) | – |
| C=C(C)C1CC[C@]2(C)CC1c1c(O)c3c(c(CC=C(C)C)c1O2)O[C@]12C(=C[C@@H]4CC1C(C)(C)OC2(C/C=C(\C)C(=O)O)C4=O)C3=O (stereo partly drawn) | > 16 µg/mL | > 16 µg/mL | – |
| COc1cc2oc3cc(OC)c(OC)c(CC=C(C)C)c3c(=O)c2c(O)c1CC=C(C)C | > 16 µg/mL | > 16 µg/mL | – |
| CC(C)=CCc1c(O)c(CC=C(C)C)c2oc3c(O)ccc(O)c3c(=O)c2c1O [GARTANIN] | > 16 µg/mL | > 16 µg/mL | – |
| COc1c(O)cc2oc3cc(O)c(CC=C(C)C)c(O)c3c(=O)c2c1CC=C(C)C [MANGOSTIN] | 4 µg/mL (≈ 9.75 µM) | 4 µg/mL (≈ 9.75 µM) | – |
| CCCCCCCCCC(=O)N[C@@H](Cc1c[nH]c2ccccc12)C(=O)N[C@@H](CC(N)=O)C(=O)N[C@@H](CC(=O)O)C(=O)N[C@@H]1C(=O)NCC(=O)N[C@@H](CCCN)C(=O)N[C@@H](CC(=O)O)C(=O)N[C@H](C)C(=O)N[C@@H](CC(=O)O)C(=O)NCC(=O)N[C@H](CO)C(=O)N[C@@H]([C@@H](C)CC(=O)O)C(=O)N[C@@H](CC(=O)c2ccccc2N)C(=O)O[C@@H]1C | – | – | Activity [3]: inactive; fold change (FC) [4]: 32 |
| CO[C@@]1(NC(=O)Cc2cccs2)C(=O)N2C(C(=O)O)=C(COC(N)=O)CS[C@@H]21 [CEFOXITIN] | – | > 16 µg/mL | – |
| CC(C)=CCC[C@]1(C)CC(O)c2c(O)c3c(c(CC=C(C)C)c2O1)O[C@]12C(=C[C@@H]4C[C@H]1C(C)(C)O[C@@]2(C/C=C(/C)C(=O)O)C4=O)C3=O (stereo partly drawn) | 16 µg/mL (≈ 24.7 µM) | 8 µg/mL (≈ 12.4 µM) | – |
| COc1cc2oc3cc(O)c(OC)c(CC=C(C)C)c3c(=O)c2c(O)c1CC=C(C)C | 16 µg/mL (≈ 37.7 µM) | > 16 µg/mL | – |
| CC[C@H](C)[C@H](NC(=O)CN)C(=O)NCC(=O)N[C@@H](C)C(=O)N[C@H](C(=O)N[C@@H](CC(C)C)C(=O)N[C@@H](CCCCN)C(=O)N[C@H](C(=O)N[C@@H](CC(C)C)C(=O)N[C@H](C(=O)N[C@H](C(=O)NCC(=O)N[C@@H](CC(C)C)C(=O)N1CCC[C@H]1C(=O)N[C@@H](C)C(=O)N[C@@H](CC(C)C)C(=O)N[C@H](C(=O)N[C@@H](CO)C(=O)N[C@@H](Cc1c[nH]c2ccccc12)C(=O)N[C@H](C(=O)N[C@@H](CCCCN)C(=O)N[C@@H](CCCNC(=N)N)C(=O)N[C@@H](CCCCN)C(=O)N[C@@H](CCCNC(=N)N)C(=O)N[C@@H](CCC(N)=O)C(=O)N[C@@H](CCC(N)=O)C(N)=O)[C@@H](C)CC)[C@@H](C)CC)[C@@H](C)O)[C@@H](C)O)C(C)C)C(C)C | – | – | Activity [5]: Active; Activity [6]: Active; Activity [7]: Active |
| CC(C)=CCC[C@]1(C)C=Cc2c(O)c3c(c(CC=C(C)C)c2O1)O[C@]12C(=C[C@@H]4C[C@H]1C(C)(C)O[C@@]2(C/C=C(/C)C(=O)O)C4=O)C3=O [GAMBOGIC ACID] | 4 µg/mL (≈ 6.36 µM) | 4 µg/mL (≈ 6.36 µM) | – |
| CC(C)=CCc1c(O)cc2oc3cc(O)c(O)c(CC=C(C)C)c3c(=O)c2c1O | 4 µg/mL (≈ 10.1 µM) | 4 µg/mL (≈ 10.1 µM) | – |
| CC(C)=CCc1c(O)cc2oc3cc(O)c(O)c(CCC(C)(C)O)c3c(=O)c2c1O | > 16 µg/mL | 4 µg/mL (≈ 9.65 µM) | – |
| CN[C@H](CC(C)C)C(=O)N[C@H]1C(=O)N[C@@H](CC(N)=O)C(=O)N[C@H]2C(=O)N[C@H]3C(=O)N[C@H](C(=O)N[C@H](C(=O)O)c4cc(O)cc(O)c4-c4cc3ccc4O)[C@H](O)c3ccc(c(Cl)c3)Oc3cc2cc(c3O[C@@H]2O[C@H](CO)[C@@H](O)[C@H](O)[C@H]2O[C@H]2C[C@](C)(N)[C@H](O)[C@H](C)O2)Oc2ccc(cc2Cl)[C@H]1O | – | – | inhibition [8]: inactive |
| COc1c(O)cc2oc3cc(O)c(CC=C(C)C)c(O)c3c(=O)c2c1CCC(C)(C)O [GARCINONE D] | 4 µg/mL (≈ 9.34 µM) | 8 µg/mL (≈ 18.7 µM) | – |
| CC(C)=CCc1c(O)c(CC=C(C)C)c2oc3c(O)cccc3c(=O)c2c1O [8-DEOXYGARTANIN] | > 16 µg/mL | > 16 µg/mL | – |
| CC1(C)S[C@@H]2[C@H](NC(=O)[C@H](N)c3ccccc3)C(=O)N2[C@H]1C(=O)O [AMPICILLIN] | 4 µg/mL (≈ 11.4 µM) | – | Activity [9]: Active; inhibition [10]: Active; Activity [11]: Active; Activity [12]: Active; Activity [13]: Active; Activity [14]: Active |
